Test results from PubChem BioAssay (NCI).
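Tested at 5 concentrations; 48 h exposure; 96-well plates; endpoints linearly interpolated, else capped at highest concentration. Abbreviation: GI50, concentration required for 50% inhibition of growth. The concentration for full growth arrest is given as TGI.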

What was measured:
Assay in all cases: NCI tumour cell line growth inhibition, 48 h
KM12 colon = system: KM12 colon
TK-10 renal = system: TK-10 renal
SK-MEL-5 melanoma = system: SK-MEL-5 melanoma
SR leukemia = system: SR leukemia
ACHN renal = system: ACHN renal
M14 melanoma = system: M14 melanoma
HT29 colon = system: HT29 colon
OVCAR-3 ovarian = system: OVCAR-3 ovarian
SNB-19 CNS = system: SNB-19 CNS
BT-549 breast = system: BT-549 breast
HCT-15 colon = system: HCT-15 colon
MDA-MB-231 breast = system: MDA-MB-231 breast
OVCAR-4 ovarian = system: OVCAR-4 ovarian
HCT-116 colon = system: HCT-116 colon
DU-145 prostate = system: DU-145 prostate
COLO 205 colon = system: COLO 205 colon
MOLT-4 leukemia = system: MOLT-4 leukemia
MCF7 breast = system: MCF7 breast
UACC-62 melanoma = system: UACC-62 melanoma
MALME-3M melanoma = system: MALME-3M melanoma
CCRF-CEM leukemia = system: CCRF-CEM leukemia
SN12C renal = system: SN12C renal
SW-620 colon = system: SW-620 colon
A549 NSCLC = system: A549 NSCLC
RXF 393 renal = system: RXF 393 renal
NCI-H226 lung = system: NCI-H226 lung
NCI-H522 lung = system: NCI-H522 lung
HS 578T breast = system: HS 578T breast

Structure (SMILES): COc1cccc(N2CCN(c3ncnc4c3[nH]c3ccc(F)cc34)C[C@@H]2C)c1
- GI50 (KM12 colon): 1220 nM
- TGI (KM12 colon): 2730 nM
- GI50 (TK-10 renal): 2140 nM
- TGI (TK-10 renal): 4420 nM
- GI50 (SK-MEL-5 melanoma): 1310 nM
- TGI (SK-MEL-5 melanoma): 2580 nM
- GI50 (SR leukemia): 2710 nM
- TGI (SR leukemia): > 100000 nM
- GI50 (ACHN renal): 1490 nM
- TGI (ACHN renal): 3720 nM
- GI50 (M14 melanoma): 1360 nM
- TGI (M14 melanoma): 2730 nM
- GI50 (HT29 colon): 2790 nM
- TGI (HT29 colon): 9850 nM
- GI50 (OVCAR-3 ovarian): 1500 nM
- TGI (OVCAR-3 ovarian): 5590 nM
- GI50 (SNB-19 CNS): 2550 nM
- TGI (SNB-19 CNS): 6900 nM
- GI50 (BT-549 breast): 343 nM
- TGI (BT-549 breast): 1430 nM
- GI50 (HCT-15 colon): 1750 nM
- TGI (HCT-15 colon): 4420 nM
- GI50 (MDA-MB-231 breast): 2270 nM
- TGI (MDA-MB-231 breast): 6470 nM
- GI50 (OVCAR-4 ovarian): 852 nM
- TGI (OVCAR-4 ovarian): 3860 nM
- GI50 (HCT-116 colon): 1220 nM
- TGI (HCT-116 colon): 3130 nM
- GI50 (DU-145 prostate): 1380 nM
- TGI (DU-145 prostate): 2670 nM
- GI50 (COLO 205 colon): 1430 nM
- TGI (COLO 205 colon): 2800 nM
- GI50 (MOLT-4 leukemia): 999 nM
- TGI (MOLT-4 leukemia): 4650 nM
- GI50 (MCF7 breast): 1530 nM
- TGI (MCF7 breast): 3450 nM
- GI50 (UACC-62 melanoma): 716 nM
- TGI (UACC-62 melanoma): 2120 nM
- GI50 (MALME-3M melanoma): 1360 nM
- TGI (MALME-3M melanoma): 3430 nM
- GI50 (CCRF-CEM leukemia): 603 nM
- TGI (CCRF-CEM leukemia): > 100000 nM
- GI50 (SN12C renal): 1170 nM
- TGI (SN12C renal): 2460 nM
- GI50 (SW-620 colon): 2270 nM
- TGI (SW-620 colon): 6070 nM
- GI50 (A549 NSCLC): 1900 nM
- TGI (A549 NSCLC): 5960 nM
- GI50 (RXF 393 renal): 2240 nM
- TGI (RXF 393 renal): 5450 nM
- GI50 (NCI-H226 lung): 1320 nM
- TGI (NCI-H226 lung): 3030 nM
- GI50 (NCI-H522 lung): 592 nM
- TGI (NCI-H522 lung): 2020 nM
- GI50 (HS 578T breast): 1770 nM
- TGI (HS 578T breast): 8520 nM
